Assay results: patent US20200399329A1, “ANTIMICROBIAL PEPTIDES” (priority 2015, published 2020)
In brackets after ≈: the same amount, converted by molar mass. Where a SMILES comes first, the peptide text is derived from it. Bridges are numbered along the chain shown (N, C = ends).

Columns and labels:
[1] = system: K. pneu Sens. 700603 QC strain; format: cell-based, K. pneumoniae
Experimental: (§1) In order to determine the MIC values of the peptides, growth and inhibition of various bacteria were monitored after treatment with the peptides of the invention (Table B). E. coli, K. pneumoniae, P. aeruginosa and Salmonella bacteria were cultured at 37° C. and at 5×10^6 CFU/ml in a standard 96-well-plate, in Mueller Hinton broth. […] The growth of the bacteria was continuously monitored via spectrophotometry at a wave-length of 625 nm. As bacterial growth progresses, Optical density at 625 nm (OD625 nm) values increase, and where the bacterial growth is inhibited, OD625 nm values remain constant. The experimental system and parameters described herein were used to determine the MIC values of OMN3, OMN5, OMN8 and OMN9 on various bacteria strains (Table B). Using the standard MHB MIC testing for antibiotic activity

[2] = system: E. coli strains; format: cell-based
Experimental: as §1

[3] = system: P. aeruginosa BAA-2795; format: cell-based, Pseudomonas aeruginosa
Experimental: as §1

[4] = system: P. aeruginosa BAA-2796; format: cell-based, Pseudomonas aeruginosa
Experimental: as §1

[5] = system: E. coli CR BAA-2452; format: cell-based, Escherichia coli
Experimental: as §1

[6] = system: E. coli Sens. 25922 QC strain; format: cell-based, Escherichia coli
Experimental: as §1

[7] = system: E. coli ESBL BAA-198; format: cell-based, Escherichia coli
Experimental: as §1

[8] = system: K . pneu KPC + BAA-2344; format: cell-based, Klebsiella pneumoniae
Experimental: as §1

[9] = system: K. pneu NDM1 BAA-2473; format: cell-based, Klebsiella pneumoniae
Experimental: as §1

## CC[C@H](C)[C@@H]1NC(=O)CNC(=O)[C@H](CC(N)=O)NC(=O)[C@H](CCCNC(=N)N)NC(=O)[C@H]([C@@H](C)CC)NC(=O)[C@H](CC(N)=O)NC(=O)[C@H](CCCNC(=N)N)NC(=O)CNC(=O)[C@H](C(C)C)NC(=O)[C@H](CCCCN)NC(=O)[C@H](CCC(=O)O)NC(=O)[C@H]([C@@H](C)CC)NC(=O)[C@H](CCCCN)NC(=O)[C@H](CCCCN)NC(=O)[C@H](Cc2ccccc2)NC(=O)[C@H]([C@@H](C)CC)NC(=O)[C@H](CCCCN)NC(=O)[C@H](Cc2c[nH]c3ccccc23)NC(=O)[C@H](CCCCN)NC(=O)[C@@H](NC(=O)[C@@H](N)CCSC)CSSC[C@@H](C(=O)O)NC(=O)[C@H](CC(C)C)NC(=O)[C@H](C)NC(=O)[C@H](CCCCN)NC(=O)[C@H](C)NC(=O)[C@H](CCC(=O)O)NC(=O)CNC(=O)[C@H](CC(C)C)NC(=O)[C@H](C(C)C)NC(=O)[C@H](C)NC(=O)[C@H](C(C)C)NC(=O)[C@H](C)NC(=O)[C@@H]2CCCN2C(=O)CNC(=O)[C@H](C)NC(=O)[C@H](CCCCN)NC(=O)[C@H]([C@@H](C)CC)NC1=O [OMN9] (H-MCKWKIFKKIEKVGRNIRNGIIKAGPAVAVLGEAKALC-OH; disulfide 2-38; N-terminus and C-terminus assumed)
[1]
  MIC: 32 µg/mL (≈ 7.7 µM)
[2]
  MIC for E. coli strains: 4 to 8 µg/mL
[3]
  MIC: 64 µg/mL (≈ 15.4 µM)
[4]
  MIC: 64 µg/mL (≈ 15.4 µM)
[5]
  MIC: 8 µg/mL (≈ 1.93 µM)
[6]
  MIC: 8 µg/mL (≈ 1.93 µM)
[7]
  MIC: 4 µg/mL (≈ 0.963 µM)
[8]
  MIC: 64 µg/mL (≈ 15.4 µM)
[9]
  MIC: 32 µg/mL (≈ 7.7 µM)
